Measured values taken from patent publication US20050064384A1, “Recruitment of mst1 or mst2 protein kinase to induce apoptosis in eukaryotic cells” (priority 2001, published 2005).
“Also recorded” adds a separate entry of the source. Peptide text beside a SMILES is read from it. * marks the point of attachment. Cbz = O=C(OCc1ccccc1)*; CH2F = FC*

Experiments:
Format in all cases: cell-based
[1] = tested on: HEK293 cells; assay: Apoptosis assay in HEK293 cells (trypan blue exclusion); conditions: incubation with zVAD-FMK, data not shown
Protocol: Transient transfections were performed using LIPOFECTAMINE™ transfection reagent (Gibco BRL, Gaithersburg, Md.) according to the manufacturer's instructions. […] Each well was transfected with a total of 0.5 μg DNA and 3.5 μl LIPOFECTAMINE™ transfection reagent.

[2] = tested on: NIH3T3 cells; assay: Annexin V labeling in NIH 3T3 cells (FACS); conditions: zVAD-FMK 42 μM added at the time of transfection; cells harvested 24 hours later; NORECAAX + wild type MST1, or myrMST1
Protocol: Annexin V labeling in NIH 3T3 cells. The assay was as described in (van Engeland et al., Cytometry, 24: 131-139 (1996)) with some modifications. NIH 3T3 cells were plated at 3-4×10^5 per well in a 6-well plate the day before transfection. Cells were transfected in duplicate with 6 μg of DNA and 10 μl of LIPOFECTAMINE™ 2000 transfection reagent (GIBCO BRL, Gaithersburg, Md.) in the presence of 10% serum, as recommended by manufacturer, and left for 19-23 hours. In some experiments, Z-Vad-FMK (Calbiochem) was added to 42 μM (final concentration) at the time of transfection. Rat annexinV, purified from liver or recombinant, labeled with Alexa 488 dye was added to the culture media to 1 mg/ml and cells were incubated 5 minutes at 37° C., followed by 25 minutes at room temperature in the dark. Media with floating cells was transferred to 5 ml centrifuge tubes on ice; the plates were washed twice with 1 ml of HBS (20 mM HEPES, pH 7.4, 150 mM NaCl, 2.5 mM CaCl2) and the washes were added to the tubes with media. Floating cells were pelleted, resuspended in 3 ml of HBS and pelleted again. Adherent cells were scraped into 1 ml HBS, pooled with floating cells from the same dish and resuspended by vortexing. […] Cells were analyzed by Coulter EPICS V XL flow cytometer; the percent of annexinV-positive cells was calculated by the cytometer software. […]

[3] = tested on: Jurkat cells; assay: Jurkat cell survival by flow cytometry (GFP positive live cells); conditions: incubation with zVAD-FMK, data not shown
Protocol: The Jurkat/T antigen cell line was cultured in complete IMDM medium supplemented with 10% FCS, 2 mM glutamine and gentamycin (50 μg/ml) in a humidified incubator with 5% CO2 in air at 37° C. The cells were kept at a density of 0.5-1×10^6/ml. Aliquots containing 3×10^6 Jurkat cells were electorporated at 250 volts and 960 μF with mixtures of plasmids as indicated in the Figures together with 1 μg of cDNA encoding GFP. Twenty-four hours post transfection, cell survival was analyzed by flow cytometry using a previously optimized program to measure percentage of live cells that are GFP positive present in forward scatter/side scatter gate in each experimental condition (Vermes et al., J. Immunol. Meth., 243: 167-190 (2000)). The vital GFP positive cells were selected on the basis of unchanged scatter signals when compared to untransfected cells and the apoptotic cell population with decreased FS and increased SS was excluded from the analysis. The data was expressed as “percent cells surviving” with vector controls set to 100%.

COC(=O)C[C@H](NC(=O)[C@H](C)NC(=O)[C@@H](NC(=O)OCc1ccccc1)C(C)C)C(=O)CF [zVAD-FMK] (Cbz-Val-Ala-Asp(OMe)-CH2F)
suppression of killing caused by low doses of NORECAAX with MST1 [1]: suppressed
suppression of NORECAAX and MST1-induced annexin V binding (staining) [2]: suppresses; also recorded: fully suppressed
suppression of killing caused by low doses of NORECAAX with MST1 [3]: suppressed
